# Source: a melting point compilation (Tetko et al.; mined from patent text by program, amines drawn as free bases though some values may be those of a salt)
row,Compound,melting point
1,O=c1c2c([nH]c3nc(NCc4ccccc4)nn13)CCCS2,332 to 335 °C
2,CC1=C(C)CC2C(C1)C(=O)NS2=O (centres undefined),135 to 137 °C
3,CCC1(CC)O[C@@H](Oc2ccc3c(O)c(NC(=O)C(C)C)c(=O)oc3c2C)[C@H](O)[C@H](OC(=O)C2(C)C=CCN2)[C@H]1OC (some centres undefined),140 to 142 °C
4,N[C@@H](CC(=O)N1CCn2c(nnc2C(F)(F)F)C1)Cc1cc(F)c(F)cc1F,118 °C
5,CC(C)(C)OC(=O)c1cc(N2CCOCC2)cc([N+](=O)[O-])c1,116 to 118 °C
6,COC(=O)C=Cc1ccc(-n2ccn(-c3ccc(C#N)cc3)c2=O)cc1,210 to 212 °C
7,N#CC1=C(Nc2cccc(Cl)c2)CCC1,111 to 112 °C
8,Cc1cc(C(C)(C)C)c(OP2OP(Oc3c(C(C)(C)C)cc(C)cc3C(C)(C)C)OP(Oc3c(C(C)(C)C)cc(C)cc3C(C)(C)C)O2)c(C(C)(C)C)c1 (centres undefined),176 to 181 °C
9,Cc1oc(C=Cc2cccc(C(F)(F)F)c2)nc1CCl,99 to 100 °C
10,COC(=O)c1ncc(Nc2cc(C)[nH]n2)nc1Nc1ccc(Cl)cc1,259 to 261 °C
11,CCOC(=O)c1c(CCN(CC)CC)nc2cc(OC)c(OC)cc2c1-c1ccc(OC)c(OC)c1,76 to 78 °C
12,CCOC(=O)/C(=N\O[C@H]1CC[C@H](C)CC1)c1csc(N)n1,133 to 135 °C
13,COc1cc(N2CCC(N3CCCN(C)CC3)CC2)ccc1Nc1ncc2ccc(-c3ccccc3OC)n2n1,69 to 76 °C
14,COc1ccc(CNc2c(-c3cc(Cl)ccc3O)c3cc(C(F)(F)F)ccc3[nH]c2=O)cc1,103 to 106 °C
15,COc1ccc(C(=O)CCCN2CCC(OC(=O)c3cc(Cl)c(N)c4c3OCC4)CC2)cc1OC,156 °C
16,Cn1ncc(/C=C/C(=O)Nc2ccc(Cc3nnn[nH]3)cc2)c1-c1ccc(F)cc1,252 to 253 °C
17,Cc1ccccc1-c1cccc(F)c1C#N,57 to 58 °C
18,Cc1nc2c(C#N)c(C)nn2c(Cl)c1CCCl,113 to 115 °C
19,CCCC(CCC)N1Cc2c(C(=O)OC)cc(NS(C)(=O)=O)cc2C1=O,173 °C
20,c1ccc(-n2ncnc2-c2ccncc2)cc1,92 to 94 °C

row,Compound,melting point
1,N#CC(C=N)CC(=O)c1ccccc1 (centres undefined),89 to 90 °C
2,O=c1[nH]c2ccc3c(c2[nH]c1=O)NCCC3,> 300 °C
3,CS(=O)(=O)c1ccc(-c2cc(-c3nc4ccccc4c(=O)n3-c3ccccc3Cl)sc2N2CCOCC2)cc1,> 275 °C
4,Nc1ncnc2c1c(-c1ccc(Oc3ccccc3)cc1)cn2S(=O)(=O)C1CCCC1,188 °C
5,CCN(CC)c1ccc(N(CC)CC)c(N2CCNCC2)n1,120 °C
6,O=C(O)COc1ccc(-c2cc(O)c(Sc3ccccc3)c(=O)o2)cc1,186 to 188 °C
7,O=C(O)Cc1cc(=O)n(Cc2ccc([N+](=O)[O-])cc2)c2ccccc12,208 to 210 °C
8,O=[N+]([O-])c1cnn2cnc3ccccc3c12,177 to 178 °C
9,Nc1sc2c(c1C(=O)c1ccc3ccccc3c1)CCC(Cc1ccc([N+](=O)[O-])cc1)C2 (centres undefined),76 to 78 °C
10,CCSCC12CCC(=O)C=C1CCC1C3CC(CC)C(=O)C3(C)CCC12 (centres undefined),73 °C
11,CCOC(=O)c1nc(-c2ccccc2)n(-c2ccc(C(F)(F)F)cc2Cl)n1,107 to 108 °C
12,N#CC1CN1C(=O)NC(=O)c1ccccc1 (centres undefined),144 to 146 °C
13,CCOC(=O)COc1cc(O)c2c(c1)NC1(CCCCC1)CC2=O,134 to 135 °C
14,O=c1cc(-c2ccccc2F)oc(N2CCOCC2)c1,137 to 138 °C
15,CCc1sc(-c2cc[nH]n2)c2c1C(=O)CC(C)(C)C2,152 to 155 °C
16,Cc1cc(-c2cc(C(F)F)nn2-c2ccc(S(C)(=O)=O)c(F)c2)ccc1-c1nccs1,123 °C
17,CCOCc1nc2c(N)nc3ccccc3c2n1CC(C)(C)C(N)=O,241 to 243 °C
18,CCCNC(=NC#N)Nc1cccnc1,164 to 165 °C
19,CCCCCCCCCCNc1ccc(C(=O)Nc2cc(C(=O)NCCSC)ccc2OC)cc1,100 to 104 °C
